{"source": "paper PMC4104591", "about": "(Structure (London, England : 1993), 2013)", "molecular_target": "mutant-MDM2-p53 complex (Homo sapiens, UniProt Q00987, E23G/S22P)", "sequence (Q00987 1-125 S22P/E23G, one chain of several)": "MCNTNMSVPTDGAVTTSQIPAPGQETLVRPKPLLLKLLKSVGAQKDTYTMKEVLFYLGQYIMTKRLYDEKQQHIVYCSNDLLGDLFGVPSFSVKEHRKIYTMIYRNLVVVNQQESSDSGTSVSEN", "test": "Competitive AIDA-NMR antagonist-induced dissociation assay", "assay_type": "binding", "conditions": "compared with the WT-MDM2-p53 complex"}
{"smiles": "COc1ccc(C2=N[C@@H](c3ccc(Cl)cc3)[C@@H](c3ccc(Cl)cc3)N2C(=O)N2CCNC(=O)C2)c(OC(C)C)c1", "note": "[nutlin-3]", "values": [{"measurement": "effectiveness in dissociating the mutant-MDM2-p53 complex", "value": "less effective"}]}
